Earlier results, collected in patent US20070042451A1, “Glycine decarboxylase complex as a herbicidal target” (BASF Aktiengesellschaft, priority 2003, published 2007).

Tested on: glycine decarboxylase complex
Details: Navarre and Wolpert 1995

victorine
in vitro inhibition of the GDC activity: inhibition of the GDC activity
